Data from patent publication US8940769B2, “Biaryl benzoimidazole derivatives and pharmaceutical composition comprising the same” (Daewoong Pharmaceutical Co., Ltd., priority 2006, dated 2015).

Target: T1, human vanilloid receptor VR-1 (hVR1) (Homo sapiens, UniProt Q8NER1)
T1 construct: expressed in transfected cells; host or cells: HEK293 Tet-on cells (hVR1-HEK293), expression induced with doxycycline
Assay: Calcium influx test of vanilloid receptor (capsaicin-induced, Fluo-3/AM, hVR1-HEK293 cells)
Assay type: cell-based
Conditions: for IC50: calcium influx induced by 1 μM capsaicin, read-out: Inhibitory effect IC50 (nM) on calcium influx; for inhibition at 0.2 µM: read-out: Inhibitory effect (%) on calcium influx
Experimental: In order to measure an activity of the biaryl benzoimidazole derivative of the invention as an antagonist, a calcium influx test was performed.
An hVR1-HEK293 cell line is a cell line, in which a Human Embryonic Kidney (HEK) 293 Tet-on cell is transformed with a human vanilloid-1 gene (pTRE2hyg-hVR1, 7.8 kb). The cell line can regulate a VR-1 expression, depending on the administration of a tetracycline analogue, doxycycline. At two days before the calcium influx test, the cell line was cultured in media containing doxycycline to induce the VR-1 expression, and then used. First, the hVR1-HEK293 cells were cultured in T75 flasks to have a density of about 80%, and then detached from the bottom of the flasks by using trypsin. The detached cells were centrifuged and collected. Then, the cells were suspended in media containing 1 μg/mL doxycycline, and diluted to have a concentration of 2×10^5 to 4×10^5 cells/mL. 100 μL of the suspended cells were added to each well of 96-well black plate, cultured at 37° C. and 5% CO2 cell incubator for two days, and then used in the calcium influx test.
The compound was dissolved in dimethyl sulfoxide (DMSO), and then used for the calcium influx test.
In order to measure the calcium influx […], the cells were cultured in a solution containing Fluo-3/AM, which is a calcium indicator, at 37° C. for 90 minutes, so as to be permeated by a fluorescent dye. […] 193 μL D-PBS were added to each well, and then the compound was added thereto in various concentrations. To measure an activity as an antagonist, the cells were treated with 1 μM capsaicin to stimulate the calcium influx. The inhibitory effect of the compound when calcium influx was induced by 1 μM capsaicin was measured depending on its concentration using a fluorescence spectrometer, and the obtained data were substituted into a hill equation to analyze the values.
The inhibitory effect on calcium influx was measured with a single concentration of the compounds of the invention (200 nM), and the result thereof are shown in Table 2.

[1] = single concentration of compound 200 nM, 1 μM capsaicin

T1 sequence (Q8NER1 whole entry): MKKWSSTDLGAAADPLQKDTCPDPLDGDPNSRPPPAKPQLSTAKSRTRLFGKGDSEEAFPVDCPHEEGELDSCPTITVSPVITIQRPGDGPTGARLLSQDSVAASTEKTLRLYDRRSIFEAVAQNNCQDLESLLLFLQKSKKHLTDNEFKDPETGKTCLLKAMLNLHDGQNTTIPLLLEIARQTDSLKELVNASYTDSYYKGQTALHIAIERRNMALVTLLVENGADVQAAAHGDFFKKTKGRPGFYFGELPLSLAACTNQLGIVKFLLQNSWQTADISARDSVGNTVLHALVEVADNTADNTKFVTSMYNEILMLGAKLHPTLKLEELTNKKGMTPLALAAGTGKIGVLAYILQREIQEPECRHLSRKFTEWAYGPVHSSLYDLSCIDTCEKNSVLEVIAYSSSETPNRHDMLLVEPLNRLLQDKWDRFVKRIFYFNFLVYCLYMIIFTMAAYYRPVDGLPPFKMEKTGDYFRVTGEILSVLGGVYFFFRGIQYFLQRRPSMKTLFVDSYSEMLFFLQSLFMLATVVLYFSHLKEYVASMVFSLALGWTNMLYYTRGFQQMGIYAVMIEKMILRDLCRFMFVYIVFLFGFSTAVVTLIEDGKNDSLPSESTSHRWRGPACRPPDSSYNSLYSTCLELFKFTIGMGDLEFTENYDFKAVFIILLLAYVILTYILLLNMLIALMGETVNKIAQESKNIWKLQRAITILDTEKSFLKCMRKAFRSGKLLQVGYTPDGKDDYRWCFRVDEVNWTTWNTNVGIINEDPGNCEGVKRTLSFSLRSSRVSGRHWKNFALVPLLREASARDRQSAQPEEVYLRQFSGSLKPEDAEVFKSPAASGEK

Row | SMILES | IC50 [nM] | inhibition at 0.2 µM [1] [%] | Inhibitory effect (%) on calcium influx [1] [%]
1 | OCc1cnc(-c2ccc(-c3nc4ccc(C(F)(F)F)cc4[nH]3)cc2)c(Cl)c1 [Compound 28, {5-chloro-6-[4-(6-trifluoromethyl-1H-benzoimidazol-2-yl)-phenyl]-pyridin-3-yl}-methanol] | 181 | 2.8 | –
2 | O=C(O)c1cnc(-c2ccc(-c3nc4ccc(C(F)(F)F)cc4[nH]3)cc2)c(Cl)c1 [Compound 43, 5-chloro-6-[4-(6-trifluoromethyl-1H-benzoimidazol-2-yl)-phenyl]-nicotinic acid] | – | -3.1 | –
3 | C=Cc1cnc(-c2ccc(-c3nc4c(Br)cc(C(F)(F)F)cc4[nH]3)cc2)c(Cl)c1 [Compound 41, 4-bromo-2-[4-(3-chloro-5-vinyl-pyridin-2-yl)-phenyl]-6-trifluoromethyl-1H-benzoimidazole] | – | -2.1 | –
4 | CCNC(=O)c1cnc(-c2ccc(-c3nc4ccc(Br)cc4[nH]3)cc2)c(Cl)c1 [Compound 63, 6-[4-(6-bromo-1H-benzoimidazol-2-yl)-phenyl]-5-chloro-N-ethyl-nicotinamide] | 397 | 38.3 | –
5 | FC(F)(F)c1ccc2nc(-c3ccc(-c4ncc(CBr)cc4Cl)cc3)[nH]c2c1 [Compound 34, 2-[4-(5-bromomethyl-3-chloro-pyridin-2-yl)-phenyl]-6-trifluoromethyl-1H-benzoimidazole] | – | 13 | –
6 | C=Cc1cnc(-c2ccc(-c3nc4ccc(Cl)cc4[nH]3)cc2)c(Cl)c1 [Compound 42, 6-chloro-2-[4-(3-chloro-5-vinyl-pyridin-2-yl)-phenyl]-1H-benzoimidazole] | – | 0.9 | –
7 | OCc1cnc(-c2ccc(-c3nc4ccc(Br)cc4[nH]3)cc2)c(Cl)c1 [Compound 30, {6-[4-(6-bromo-1H-benzoimidazol-2-yl)-phenyl]-5-chloro-pyridin-3-yl}-methanol] | 171 | 27.8 | –
8 | CC(=O)OCc1cnc(-c2ccc(-c3nc4c(Br)cc(C(F)(F)F)cc4[nH]3)cc2)c(Cl)c1 [Compound 57, acetic acid 6-[4-(4-bromo-6-trifluoromethyl-1H-benzoimidazol-2-yl)-phenyl]-5-chloro-pyridin-3-yl methyl ester] | – | – | 16.9
9 | CC(C)(C)c1ccc2nc(-c3ccc(-c4ncc(CBr)cc4Cl)cc3)[nH]c2c1 [Compound 35, 2-[4-(5-bromomethyl-3-chloro-pyridin-2-yl)-phenyl]-6-tert-butyl-1H-benzoimidazole] | – | 59.6 | –
10 | OCc1cnc(-c2ccc(-c3nc4ncc(Br)cc4[nH]3)cc2)c(Cl)c1 [Compound 31, {6-[4-(6-bromo-1H-imidazo[4,5-b]pyridin-2-yl)-phenyl]-5-chloro-pyridin-3-yl}-methanol] | – | 1.7 | –
11 | CCNC(=O)c1cnc(-c2ccc(-c3nc4ccc(C(C)(C)C)cc4[nH]3)cc2)c(Cl)c1 [Compound 62, 6-[4-(6-tert-butyl-1H-benzoimidazol-2-yl)-phenyl]-5-chloro-N-ethyl-nicotinamide] | 126 | 54.3 | –
12 | C=Cc1cnc(-c2ccc(-c3nc4ccc(C(C)(C)C)cc4[nH]3)nc2)c(Cl)c1 [Compound 67, 6′-(6-tert-butyl-1H-benzoimidazol-2-yl)-3-chloro-5-vinyl-[2,3′]bipyridinyl] | – | -8.8 | –
13 | COC(=O)c1cnc(-c2ccc(-c3nc4ncc(Br)cc4[nH]3)cc2)c(Cl)c1 [Compound 51, 6-[4-(6-bromo-1H-imidazo[4,5-b]pyridin-2-yl)-phenyl]-5-chloro-nicotinic acid methyl ester] | – | 1.1 | –
14 | CCNC(=O)c1cnc(-c2ccc(-c3nc4ncc(Br)cc4[nH]3)cc2)c(Cl)c1 [Compound 64, 6-[4-(6-bromo-1H-imidazo[4,5-b]pyridin-2-yl)-phenyl]-5-chloro-N-ethyl-nicotinamide] | – | 11.1 | –
15 | O=Cc1cnc(-c2ccc(-c3nc4ccc(C(F)(F)F)cc4[nH]3)cc2)c(Cl)c1 [Compound 58, 5-chloro-6-[4-(6-trifluoromethyl-1H-benzoimidazol-2-yl)-phenyl]-pyridine-3-carbaldehyde] | 94.5 | 39.1 | –
16 | CC(C)(C)c1ccc2nc(-c3ccc(-c4ncc(C=O)cc4Cl)cc3)[nH]c2c1 [Compound 59, 6-[4-(6-tert-butyl-1H-benzoimidazol-2-yl)-phenyl]-5-chloro-pyridine-3-carbaldehyde] | 29.5 | 82.5 | –
17 | C=Cc1cnc(-c2ccc(-c3nc4c(Br)cc(C(F)(F)F)cc4[nH]3)nc2)c(Cl)c1 [Compound 70, 6′-(4-bromo-6-trifluoromethyl-1H-benzoimidazol-2-yl)-3-chloro-5-vinyl-[2,3′]bipyridinyl] | – | 0 | –
18 | CCNC(=O)c1cnc(-c2ccc(-c3nc4c(Br)cc(C(F)(F)F)cc4[nH]3)cc2)c(Cl)c1 [Compound 65, 6-[4-(4-bromo-6-trifluoromethyl-1H-benzoimidazol-2-yl)-phenyl]-5-chloro-N-ethyl-nicotinamide] | – | 30.9 | –
19 | COC(=O)c1cnc(-c2ccc(-c3nc4ccc(N5CCOCC5)cc4[nH]3)nc2)c(Cl)c1 [Compound 71, 3-chloro-6′-(6-morpholin-4-yl-1H-benzoimidazol-2-yl)-[2,3′]bipyridinyl-5-carboxylic acid methyl ester] | – | 7.1 | –
20 | CN1CCN(c2ccc3nc(-c4ccc(-c5ncc(CO)cc5Cl)cc4)[nH]c3c2)CC1 [Compound 27, (5-chloro-6-{4-[6-(4-methyl-piperazin-1-yl)-1H-benzoimidazol-2-yl]-phenyl}-pyridin-3-yl)-methanol] | – | 4 | –
21 | CCNC(=O)c1cnc(-c2ccc(-c3nc4ccc(C(F)(F)F)cc4[nH]3)cc2)c(Cl)c1 [Compound 61, 5-chloro-N-ethyl-6-[4-(6-trifluoromethyl-1H-benzoimidazol-2-yl)-phenyl]-nicotinamide] | – | 23.4 | –

Other lines, results leading:

Row | IC50 [nM] | inhibition at 0.2 µM [1] [%] | Inhibitory effect (%) on calcium influx [1] [%] | SMILES
22 | 158 | 42.7 | – | CC(C)(C)c1ccc2nc(-c3ccc(-c4ncc(CO)cc4Cl)cn3)[nH]c2c1 [Compound 90, [6′-(6-tert-butyl-1H-benzoimidazol-2-yl)-3-chloro-[2,3′]bipyridinyl-5-yl]-methanol]
23 | – | 48.9 | – | COC(=O)c1cnc(-c2ccc(-c3nc4c(Br)cc(C(F)(F)F)cc4[nH]3)nc2)c(Cl)c1 [Compound 77, 6′-(4-bromo-6-trifluoromethyl-1H-benzoimidazol-2-yl)-3-chloro-[2,3′]bipyridinyl-5-carboxylic acid methyl ester]
24 | – | 7.3 | – | OCc1cnc(-c2ccc(-c3nc4ncc(Br)cc4[nH]3)nc2)c(Cl)c1 [Compound 92, [6′-(6-bromo-1H-imidazo[4,5-b]pyridin-2-yl)-3-chloro-[2,3′]bipyridinyl-5-yl]-methanol]
25 | 338 | 30 | – | OCc1cnc(-c2ccc(-c3nc4ccc(C(F)(F)F)cc4[nH]3)nc2)c(Cl)c1 [Compound 89, [3-chloro-6′-(6-trifluoromethyl-1H-benzoimidazol-2-yl)-[2,3′]bipyridinyl-5-yl]-methanol]
26 | – | -0.6 | – | CCNC(=O)c1cnc(-c2ccc(-c3nc4ccc(N5CCOCC5)cc4[nH]3)nc2)c(Cl)c1 [Compound 95, 3-chloro-6′-(6-morpholin-4-yl-1H-benzoimidazol-2-yl)-[2,3′]bipyridinyl-5-carboxylic acid ethyl amide]
27 | – | 45.3 | – | COC(=O)c1cnc(-c2ccc(-c3nc4ccc(Br)cc4[nH]3)nc2)c(Cl)c1 [Compound 75, 6′-(6-bromo-1H-benzoimidazol-2-yl)-3-chloro-[2,3′]bipyridinyl-5-carboxylic acid methyl ester]
28 | – | 3.7 | – | CCNC(=O)c1cnc(-c2ccc(-c3nc4c(Br)cc(C(F)(F)F)cc4[nH]3)nc2)c(Cl)c1 [Compound 101, 6′-(4-bromo-6-trifluoromethyl-1H-benzoimidazol-2-yl)-3-chloro-[2,3′]bipyridinyl-5-carboxylic acid ethyl amide]
29 | – | 6.3 | – | O=C(O)c1cnc(-c2ccc(-c3nc4ncc(Br)cc4[nH]3)nc2)c(Cl)c1 [Compound 84, 6′-(6-bromo-1H-imidazo[4,5-b]pyridin-2-yl)-3-chloro-[2,3′]bipyridinyl-5-carboxylic acid]
30 | 26.2 | 81.3 | – | COC(=O)c1cnc(-c2ccc(-c3nc4ccc(C(C)(C)C)cc4[nH]3)nc2)c(Cl)c1 [Compound 74, 6′-(6-tert-butyl-1H-benzoimidazol-2-yl)-3-chloro-[2,3′]bipyridinyl-5-carboxylic acid methyl ester]
31 | – | 4.1 | – | COC(=O)c1cnc(-c2ccc(-c3nc4c(Br)cc(Br)cc4[nH]3)nc2)c(Cl)c1 [Compound 78, 3-chloro-6′-(4,6-dibromo-1H-benzoimidazol-2-yl)-[2,3′]bipyridinyl-5-carboxylic acid methyl ester]
